# Source: US20080255192A1, “Methods and Compositions for Selectin Inhibition” (Wyeth, priority 2007, published 2008)
# Target: T1, P-selectin/PSGL-1 interaction (Homo sapiens, UniProt P16109)
# T1 construct: comprised of the lectin and epidermal growth factor-like (EGF) domains expressed in CHO cells; made in house; host or cells: CHO cells (P-LE)
# T1 sequence (P16109 42-198): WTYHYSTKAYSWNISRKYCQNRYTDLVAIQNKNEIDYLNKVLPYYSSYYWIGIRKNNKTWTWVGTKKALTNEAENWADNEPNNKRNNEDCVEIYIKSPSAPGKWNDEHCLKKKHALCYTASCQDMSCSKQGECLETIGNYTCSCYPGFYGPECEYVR
# Experiment: Biacore P-Selectin/PSGL-1 Inhibition Assay (surface plasmon resonance)
# Type: binding
# Settings: 250 uM test compound, 500 nM P.LE, immobilized PSGL-1 19ek, 10% DMSO, pH 7.4
# Experimental: Surface plasmon resonance assays were performed on a Biacore 3000 instrument (Biacore Inc. Piscataway, N.J.) at 25° C. at a flow rate of 30 μL/minute and each assay consisted of a 60-second equilibration, a 60-μL sample injection (kinject), and a 300-second dissociation.
# A purified, monomeric, truncated form of human PSGL-1, “19ek”, that contained all the necessary P-selectin binding determinants (see Goetz, et al., J. Cell Biol., 1997, 137: 509-519; and Sako, et al., Cell, 1995, 83: 323-331) was biotinylated via amine chemistry (Sulfo-NHS-LC-Biotin, Peirce) at a unique C-terminal lysine residue (see Somers, et al., Cell, 2000, 103: 467-479) and immobilized on a Biacore SA sensor chip (Biacore Inc.), using an HBS-EP buffer (Biacore Inc.), and the target 600-700 RU. The coated chip was re-equilibrated with an HBS-P buffer (Biacore Inc.) to which 1 mM CaCl2 and 1 mM MgCl2 (both from Fisher) were added to ensure sufficient calcium for the calcium-dependent interaction between the receptor and the ligand.
# Test compounds were incubated for 1 hour in a 1.1× Biacore assay buffer. Each solution was centrifuged through a 0.2 µm filter, using a 96-well plate format (Millipore). Glycyrrhizin tri-sodium salt (TCI) was prepared as a positive control in parallel with the test compounds, in the same manner described above.
# A soluble recombinant truncated form of human P-selectin, P-LE, comprised of the lectin and epidermal growth factor-like (EGF) domains expressed in CHO cells (see Somers, et al., Cell, 2000, 103: 467-479) was added to each filtered test compound solution. Final concentrations of reagents were 500 nM P.LE, 250 or 500 μM test compound (depending on structure) or 1 mM glycyrrhizin, 10% DMSO, and 1× Biacore buffer ([…], 150 mM NaCl, 1 mM CaCl2, and 1 mM MgCl2 (all reagents from Fisher)), with a pH of 7.4. Compounds active at 250 μM were titrated to further define activity. Test samples were supplied to the Biacore instrument in a 96-well plate.
# The Biacore raw data file was exported as a text file to an Excel spreadsheet, where the buffer blanks bracketing the samples were averaged for each Biacore instrument flow cell (Fc), and subtracted from the averaged uninhibited P.LE samples and from all the other samples. The reference signal from Fcl (uncoated) was then subtracted from its corresponding active (coated) signal for each injection, a process known as double referencing (see Myszka, J. Mol. Recognit., 1999, 12(5): 279-284). The percent inhibition of binding was calculated by dividing the reference-subtracted inhibited signal by the reference-subtracted uninhibited signal, subtracting this value from 1, and multiplying the resulting value by 100. The replicate percent inhibition values were averaged and expressed as the mean ±standard deviation. The inter-experiment standard deviation of calculated percent inhibitions in the Biacore assay was ±5.
row,inhibition at 250 µM,Structure (SMILES)
1,36%,"COc1ccc(C2(c3nc4c(C(F)(F)F)cccc4c(C(=O)O)c3O)CC2)cc1 [Compound 50, 3-hydroxy-2-(1-(4-methoxyphenyl)cyclopropyl)-8-(trifluoromethyl)quinoline-4-carboxylic acid]"
2,38%,"COc1ccc(C2(c3nc4c5c(ccc4c(C(=O)O)c3O)CCCC5)CC2)cc1 [Compound 51, 3-hydroxy-2-(1-(4-methoxyphenyl)cyclopropyl)-7,8,9,10-tetrahydrobenzo[h]quinoline-4-carboxylic acid]"
3,47%,"O=C(O)c1c(O)c(C2(c3ccc(C(F)(F)F)cc3)CC2)nc2c(C(F)(F)F)cccc12 [Compound 52, 3-hydroxy-8-(trifluoromethyl)-2-(1-(4-(trifluoromethyl)phenyl)cyclopropyl)quinoline-4-carboxylic acid]"
4,64%,"O=C(O)c1c(O)c(C2(c3ccc(Br)cc3)CC2)nc2c(C(F)(F)F)cccc12 [Compound 53, 2-(1-(4-bromophenyl)cyclopropyl)-3-hydroxy-8-(trifluoromethyl)quinoline-4-carboxylic acid]"
5,66%,"O=C(O)c1c(O)c(C2(c3cccc(Cl)c3)CC2)nc2c(C(F)(F)F)cccc12 [Compound 54, 2-(1-(3-chlorophenyl)cyclopropyl)-3-hydroxy-8-(trifluoromethyl)quinoline-4-carboxylic acid]"
6,57%,"O=C(O)c1c(O)c(C2(c3ccccc3Cl)CC2)nc2c(C(F)(F)F)cccc12 [Compound 55, 2-(1-(2-chlorophenyl)cyclopropyl)-3-hydroxy-8-(trifluoromethyl)quinoline-4-carboxylic acid]"
7,29%,O=C(O)c1c(O)c(C2(c3ccc(OC(F)(F)F)cc3)CC2)nc2c(C(F)(F)F)cccc12 [Compound 56]
8,42%,"O=C(O)c1c(O)c(C2(c3cccc(C(F)(F)F)c3)CC2)nc2c(C(F)(F)F)cccc12 [Compound 57, 3-hydroxy-8-(trifluoromethyl)-2-(1-(3-(trifluoromethyl)phenyl)cyclopropyl)quinoline-4-carboxylic acid]"
9,≤ 10%,"O=C(O)c1c(O)c(C2(c3ccc(Cl)cc3)CCC2)nc2c(C(F)(F)F)cccc12 [Compound 58, 2-(1-(4-chlorophenyl)cyclobutyl)-3-hydroxy-8-(trifluoromethyl)quinoline-4-carboxylic acid]"

# The remaining lines, values behind:
row,Structure (SMILES),inhibition at 250 µM
1,"Cc1cccc2c(C(=O)O)c(O)c(C3(c4ccccc4)CC3)nc12 [Compound 31, 3-hydroxy-8-methyl-2-(1-phenylcyclopropyl)quinoline-4-carboxylic acid]",≤ 10%
2,"O=C(O)c1c(O)c(C2(c3ccccc3)CC2)nc2ccc(C(F)(F)F)cc12 [Compound 32, 3-hydroxy-2-(1-phenylcyclopropyl)-6-(trifluoromethyl)quinoline-4-carboxylic acid]",≤ 10%
3,"Cc1ccc2nc(C3(c4ccccc4)CC3)c(O)c(C(=O)O)c2c1 [Compound 33, 3-hydroxy-6-methyl-2-(1-phenylcyclopropyl)quinoline-4-carboxylic acid]",≤ 10%
4,"O=C(O)c1c(O)c(C2(c3ccccc3)CC2)nc2c(C(F)(F)F)cccc12 [Compound 34, 3-hydroxy-2-(1-phenylcyclopropyl)-8-(trifluoromethyl)quinoline-4-carboxylic acid]",44%
5,"O=C(O)c1c(O)c(C2(c3ccccc3)CC2)nc2c(-c3ccsc3)cccc12 [Compound 35, 3-hydroxy-2-(1-phenylcyclopropyl)-8-(thiophen-3-yl)quinoline-4-carboxylic acid]",70%
6,"O=C(O)c1c(O)c(C2(c3ccc(Cl)cc3)CC2)nc2c3c(ccc12)CCCC3 [Compound 36, 2-(1-(4-chlorophenyl)cyclopropyl)-3-hydroxy-7,8,9,10-tetrahydrobenzo[h]quinoline-4-carboxylic acid]",67%
7,"O=C(O)c1c(O)c(C2(c3ccc(Cl)cc3)CC2)nc2c(-c3ccsc3)cccc12 [Compound 37, 2-(1-(4-chlorophenyl)cyclopropyl)-3-hydroxy-8-(thiophen-3-yl)quinoline-4-carboxylic acid]",78%
8,"O=C(O)c1c(O)c(C2(c3ccc(Cl)cc3)CC2)nc2c(C(F)(F)F)cccc12 [Compound 38, 2-(1-(4-chlorophenyl)cyclopropyl)-3-hydroxy-8-(trifluoromethyl)quinoline-4-carboxylic acid]",52%
9,"CC(C)c1cccc2c(C(=O)O)c(O)c(C3(c4ccc(Cl)cc4)CC3)nc12 [Compound 39, 2-(1-(4-chlorophenyl)cyclopropyl)-3-hydroxy-8-isopropylquinoline-4-carboxylic acid]",66%
10,"Cc1ccc2c(C(=O)O)c(O)c(C3(c4ccc(Cl)cc4)CC3)nc2c1C [Compound 40, 2-(1-(4-chlorophenyl)cyclopropyl)-3-hydroxy-7,8-dimethylquinoline-4-carboxylic acid]",53%
11,"O=C(O)c1c(O)c(C2(c3ccc(Cl)cc3)CC2)nc2c(C(O)(C(F)(F)F)C(F)(F)F)cccc12 [Compound 41, 2-(1-(4-chlorophenyl)cyclopropyl)-8-(1,1,1,3,3,3-hexafluoro-2-hydroxypropan-2-yl)-3-hydroxyquinoline-4-carboxylic acid]",≤ 10%
12,"O=C(O)c1c(O)c(C2(c3ccccc3)CC2)nc2c3c(ccc12)CCCC3 [Compound 42, 3-hydroxy-2-(1-phenylcyclopropyl)-7,8,9,10-tetrahydrobenzo[h]quinoline-4-carboxylic acid]",52%
13,"Cc1ccc2c(C(=O)O)c(O)c(C3(c4ccccc4)CC3)nc2c1C [Compound 43, 3-hydroxy-7,8-dimethyl-2-(1-phenylcyclopropyl)quinoline-4-carboxylic acid]",18%
14,"CC(C)c1cccc2c(C(=O)O)c(O)c(C3(c4ccccc4)CC3)nc12 [Compound 44, 3-hydroxy-8-isopropyl-2-(1-phenylcyclopropyl)quinoline-4-carboxylic acid]",63%
15,"O=C(O)c1c(O)c(C2(c3ccccc3)CC2)nc2c(-c3ccccc3)cccc12 [Compound 45, 3-hydroxy-8-phenyl-2-(1-Phenylcyclopropyl)quinoline-4-carboxylic acid]",37%
16,"O=C(O)c1c(O)c(C2(c3ccccc3)CC2)nc2c(OC(F)(F)F)cccc12 [Compound 46, 3-hydroxy-2-(1-phenylcyclopropyl)-8-(trifluoromethoxy)quinoline-4-carboxylic acid]",≤ 10%
17,"O=C(O)c1c(O)c(C2(c3ccccc3)CC2)nc2c(Cl)cccc12 [Compound 47, 8-chloro-3-hydroxy-2-(1-phenylcyclopropyl)quinoline-4-carboxylic acid]",≤ 10%
18,"O=C(O)c1c(O)c(C2(c3ccccc3)CC2)nc2ccc(C(O)(C(F)(F)F)C(F)(F)F)cc12 [Compound 48, 6-(1,1,1,3,3,3-hexafluoro-2-hydroxypropan-2-yl)-3-hydroxy-2-(1-phenylcyclopropyl)quinoline-4-carboxylic acid]",≤ 10%
19,"O=C(O)c1c(O)c(C2(c3ccccc3)CC2)nc2c(C(O)(C(F)(F)F)C(F)(F)F)cccc12 [Compound 49, 8-(1,1,1,3,3,3-hexafluoro-2-hydroxypropan-2-yl)-3-hydroxy-2-(1-phenylcyclopropyl)quinoline-4-carboxylic acid]",58%
